Results: patent EP3366695B1, “SAPOSIN-A DERIVED PEPTIDES AND USES THEREOF” (Children's Medical Center Corporation, priority 2009, dated 2021)

Legend:
Tsp-1 [1] = test: Tsp-1 expression in WI-38 lung fibroblasts, western blot; assay type: cell-based, human
Protocol: For Western blotting, cells were harvested by mechanical scraping into 4°C PBS, cell pellets were obtained by removing PBS after centrifugation at 13,000rpm in a Heraeus Biofuge Fresco (Thermo Electron, Asheville, NC) for 2 min. Cells were then lysed in 50 mM Tris-HCl (pH 7.4), 150 mM NaCl, 1 % NP40, 1 mM sodium orthovanadate, 5 mM NaF, 20 mM β-glycerophosphate, and complete protease inhibitor (Roche, Indianapolis, IN) and protein concentrations were determined by the BioRad protein assay (BioRad, Hercules, CA). Fifty micrograms of protein were loaded per well onto a 4-12 % pre-cast Bis-Tris gel (BioRad, Hercules, CA). The protein extracts were electrophoresed and transferred to an immobilon-P membrane (Millipore, Bedford, MA). The membranes were blocked in 5 % nonfat milk and incubated in primary antibody to Tsp-1 (Ab-11, LabVision, Fremont, CA), c-Myc and phospho-Myc (Cell Signaling Technology, Beverly, MA), Prosaposin (Santa Cruz Biotechnology, Santa Cruz, CA), β-actin (AbCam, Cambridge, UK). […] Protein volume intensity was determined using a Bio-Rad Chemi-Doc XRS system (Bio-Rad, CA). […]
Seven 20-amino acid (20-mer) peptides derived from saposin A were tested for ability to stimulate Tsp-1 expression in fibroblasts. […] WI-38 lung fibroblasts were treated with these peptides overnight and the Tsp-1 expression was analyzed by Western blot analysis. […]

p53 [2] = test: p53 expression in WI-38 fibroblasts, western blot; assay type: cell-based, human; details: cyclic 13-mer plus D4476
MDM2 = MDM2 protein levels in WI-38 fibroblasts, western blot; assay type: cell-based, human; details: cyclic 13-mer plus D4476
Tsp-1 [3] = test: Tsp-1 expression in prostate fibroblasts, western blot; assay type: cell-based, human; details: PC3 conditioned media in the presence of the inhibitor
Protocol: (§1) Methods of assaying the effects of mutant, fragment or variant Psap on Tsp-1 and p53 expression are described herein. Briefly, full-length, mutant, fragment and variant Psap are applied to the cell cultures prostate fibroblast. The conditioned media from PC3M-LN4 (LN4) and PC3 cells are used as controls, with PC3 as positive/stimulating control and LN4 as negative/inhibiting controls. After a period of […] (∼16 h), the cells are harvested, rinsed, and lysed. The lysates are analyzed for the level of Tsp-1 and p53 expression by western blot analyses, with β-actin as the internal lysate protein loading control. […]
(§2) For Western blotting, cells were harvested by mechanical scraping into 4°C PBS, cell pellets were obtained by removing PBS after centrifugation at 13,000rpm in a Heraeus Biofuge Fresco (Thermo Electron, Asheville, NC) for 2 min. Cells were then lysed in 50 mM Tris-HCl (pH 7.4), 150 mM NaCl, 1 % NP40, 1 mM sodium orthovanadate, 5 mM NaF, 20 mM β-glycerophosphate, and complete protease inhibitor (Roche, Indianapolis, IN) and protein concentrations were determined by the BioRad protein assay (BioRad, Hercules, CA). […] Protein volume intensity was determined using a Bio-Rad Chemi-Doc XRS system (Bio-Rad, CA).

p53 [4] = test: p53 expression in prostate fibroblasts, western blot; assay type: cell-based, human; details: PC3 conditioned media in the presence of the inhibitor
Protocol: as §1, §2

thrombospondin-1 (Tsp-1) = test: Tsp-1 expression in lungs and livers of treated mice, western blot; assay type: in vivo
Protocol: The 20-mer […] (SEQ. ID. No. 29) was tested in vivo in mice for their ability to induce Tsp-1 expression. Four mice were treated with the 20-amino acid peptide (residues 31-50 of saposin A) at a dose of 30mg/kg/day in combination with 200uL of conditioned media (CM) from the metastatic prostate cancer cell line PC3M-LN4. […] Another four mice were treated with CM from PC3M-LN4 alone, and a control group of four mice with treated with vehicle (PBS) alone. […] Mice were treated for 9 days after which they were sacrificed and the lungs and livers were harvested and lysed. Tissue lysates were then run on a 4-12% gradient bis-tris polyacrylamide gel and transferred to a nitrocellulose membrane for western blotting with antibodies specific for thrombospondin-1 (Tsp-1) and β-actin.

[5] = mice treated for 9 days, relative to control (vehicle PBS)
[6] = mice, 30mg/kg/day with 200uL PC3M-LN4 CM, 9 days, compared to PC3M-LN4 CM

Q: How did the Tsp-1 protein levels (Tsp-1 [1]; WI-38 fibroblasts, cyclic 13-mer plus D4476) turn out when `NC(=O)c1ccc(-c2nc(-c3ccc4c(c3)OCCO4)c(-c3ccccn3)[nH]2)cc1` [D4476] was run?
A: reduction of Tsp-1 and p53

Q: What about the p53 protein levels (p53 [2]) of the same compound?
A: reduction of Tsp-1 and p53

Q: What about the MDM2 protein levels (MDM2) of the same compound?
A: increase in MDM2 protein levels

Q: `COc1ccc2c(c1)c(C1=C(c3c[nH]c4ccccc34)C(=O)NC1=O)cn2CCCN(C)C` [Gö 6983] was tested. Which “stimulation of Tsp-1 by PC3 CM” value (Tsp-1 [3]) did it give?
A: abolished the stimulation of Tsp-1 and p53

Q: What about the “stimulation of p53 by PC3 CM” value (p53 [4]) of the same compound?
A: abolished the stimulation of Tsp-1 and p53

Q: What does the source list for “LEKTCDWLPKPNMSASCKEI [20-mer, 20-mer peptide, residues 31-50 of saposin A]”?
A: Tsp-1 expression in the liver (thrombospondin-1 (Tsp-1); [5]): stimulated Tsp-1 expression over control; Tsp-1 expression in the lung (thrombospondin-1 (Tsp-1); [5]): stimulated Tsp-1 expression over control; stimulated expression of Tsp-1 in the liver (thrombospondin-1 (Tsp-1); [6]): 4 fold; stimulated expression of Tsp-1 in the lung (thrombospondin-1 (Tsp-1); [6]): 6 fold; level of stimulation of Tsp-1 (thrombospondin-1 (Tsp-1); mice, 9 days, compared with positive control PC3 conditioned media): greater than that of the weakly metastatic pancreatic cancer cell line PC3; Tsp-1 expression (Tsp-1 [1]; WI-38 fibroblasts treated with peptide): able to stimulate Tsp-1 expression
